Results published in patent US11713335B2, “Aminocoumarin compounds and methods of their use” (President and Fellows of Harvard College, priority 2018, dated 2023).
≈ marks a conversion by molar mass, not a printed value. Read-outs that look alike come from different tables or passages of the source.

Tests used:
Assay type in all cases: cell-based
E. coli MC4100 = test: Minimal inhibitory concentration, E. coli MC4100; settings: 16 hour minimal inhibitory concentration at 37° C., read-out: MIC (μM) E. coli MC4100 ara+
Description: (§1) General Procedure for Determination of Minimal Inhibitory Concentrations
(§2) Overnight cultures (5 mL) of bacterial strains were grown in LB media or TSA media (for S. aureus) at 37° C. and with shaking at 220 rpm until saturation. The overnight culture was diluted serially 1:100 (50 μL in 5 mL sterile media) and then 1:100 (250 μL in 25 mL sterile media). The 25 mL of diluted culture was then dispensed to a sterile 96 well plate (Corning #3370). 198 μL of culture were dispensed into row A and 100 μL of this culture were dispensed into rows B-H. Aminocoumarin compound (DMSO stock) were added to the first row and then the row was mixed by pipetting. 100 μL of culture from row A were transferred to row B and the serial dilution continued until the final 100 μL from row H were discarded. The plate was incubated without shaking in a 37° C. for 16 hours and then read by visible light spectrophotometer (Molecular Devices) at 600 nm. The minimal inhibitory concentration (MIC) was determined as the lowest concentration of compound concentration that inhibited the growth of bacteria.
(§3) The compounds of the invention were assessed for activities against the pathogens S. aureus RN4220 and MW2, E. cloacae 13047, A. baumannii 19606, K. pneumoniae 700721, E. coli MC4100, 25922. All activities are reported in micromolar (uM) and are 16 hour minimal inhibitory concentrations at 37° C. The assay is detailed in Example 11 and is titled “General Procedure for Determination of Minimal Inhibitory Concentrations.”

S. aureus RN4220 = test: Minimal inhibitory concentration, S. aureus RN4220; settings: 16 hour minimal inhibitory concentration at 37° C., read-out: MIC (μM) S. aureus RN4220
Description: as §1, §2, §3

A. baumannii 19606 = test: Minimal inhibitory concentration, A. baumannii 19606; settings: 16 hour minimal inhibitory concentration at 37° C., read-out: MIC (μM) A. baumannii 19606
Description: as §1, §2, §3

K. pneumoniae 700721 = test: Minimal inhibitory concentration, K. pneumoniae 700721; settings: 16 hour minimal inhibitory concentration at 37° C., read-out: MIC (μM) K. pneumoniae 700721
Description: as §1, §2, §3

E. coli 25922 = test: Minimal inhibitory concentration, E. coli 25922; settings: 16 hour minimal inhibitory concentration at 37° C., read-out: MIC (μM) E. coli 25922
Description: as §1, §2, §3

S. aureus MW2 = test: Minimal inhibitory concentration, S. aureus MW2; settings: read-out: MIC (μM) S. aureus MW2 (MRSA)
Description: as §1, §2, §3

E. cloacae 13047 = test: Minimal inhibitory concentration, E. cloacae 13047; settings: 16 hour minimal inhibitory concentration at 37° C., read-out: MIC (μM) E. cloacae 13047
Description: as §1, §2, §3

[1] = 16 hour minimal inhibitory concentration at 37° C.
[2] = Staphylococcus aureus, RN4220, 16 h
[3] = Acinetobacter baumannii, 19606, 16 h
[4] = Staphylococcus aureus, MRSA, 16 h, 16 hour minimal inhibitory concentration at 37° C.

Compound | MIC (E. coli MC4100) [µM] | MIC (S. aureus RN4220) [µM] | MIC (A. baumannii 19606) [µM] | MIC (K. pneumoniae 700721) [µM] | MIC (E. coli 25922) [µM] | MIC (S. aureus MW2; [1]) [µM] | MIC (E. cloacae 13047) [µM] | MIC (E. coli MC4100; Escherichia coli, MC4100) [µM] | MIC (S. aureus RN4220; [2]) [µM] | MIC (A. baumannii 19606; Acinetobacter baumannii, 19606) [µM] | MIC (K. pneumoniae 700721; Klebsiella pneumoniae, 700721) [µM] | MIC (E. coli 25922; Escherichia coli, 25922) [µM] | MIC (S. aureus MW2; Staphylococcus aureus, MRSA, 16 h) [µM] | MIC (E. cloacae 13047; Enterobacter cloacae, 13047) [µM] | MIC (A. baumannii 19606; [3]) [µM] | MIC (E. coli 25922; Escherichia coli, 25922, 16 h) [µM] | MIC (S. aureus MW2; [4]) [µM]
CO[C@@H]1[C@@H](OC(N)=O)[C@@H](O)[C@H](Oc2ccc3c(O)c(NC(=O)C45CC6CC(CC(F)(C6)C4)C5)c(=O)oc3c2C)OC1(C)C [Compound 100] | >200 | 83 (≈ 50.2 µg/mL) | >50 | >100 | >200 | 41 (≈ 24.8 µg/mL) | >100 |  |  |  |  |  |  |  |  |  | 
CO[C@@H]1[C@@H](OC(N)=O)[C@@H](O)[C@H](Oc2ccc3c(O)c(NC(=O)c4ccc(F)c(CC=C(C)C)c4)c(=O)oc3c2C)OC1(C)C [Compound 101] |  |  |  |  |  |  |  | 20 (≈ 12.3 µg/mL) | 2 (≈ 1.23 µg/mL) | 41 (≈ 25.2 µg/mL) | 81 (≈ 49.8 µg/mL) | 20 (≈ 12.3 µg/mL) | 1 (≈ 0.615 µg/mL) | > 100 |  |  | 
CO[C@@H]1[C@@H](OC(N)=O)[C@@H](O)[C@H](Oc2ccc3c(O)c(NC(C)=O)c(=O)oc3c2C)OC1(C)C [Compound 102] | >200 | >100 | >50 | >100 | >200 | >100 | >100 |  |  |  |  |  |  |  |  |  | 
COc1cccc(-c2cccc(C(=O)Nc3c(O)c4ccc(O[C@@H]5OC(C)(C)[C@H](OC)[C@@H](OC(N)=O)[C@H]5O)c(C)c4oc3=O)c2)c1 [Compound 103] | >200 | 36 (≈ 22.8 µg/mL) | 9 (≈ 5.71 µg/mL) | >100 | >200 | 36 (≈ 22.8 µg/mL) | >100 |  |  |  |  |  |  |  |  |  | 
CCNC(=O)O[C@H]1[C@H](Oc2ccc3c(O)c(NC(=O)c4ccc(O)c(CC=C(C)C)c4)c(=O)oc3c2C)OC(C)(C)[C@H](OC)[C@H]1O [Compound 104] | >200 | 2 (≈ 1.28 µg/mL) | 10 (≈ 6.41 µg/mL) | >100 | 156 (≈ 99.9 µg/mL) | 2 (≈ 1.28 µg/mL) | >100 |  |  |  |  |  |  |  |  |  | 
CO[C@@H]1[C@@H](O)[C@@H](OC(=O)NC(C)C)[C@H](Oc2ccc3c(O)c(NC(=O)c4ccc(O)c(CC=C(C)C)c4)c(=O)oc3c2C)OC1(C)C [Compound 105] | >200 | >100 | >50 | >100 | >200 | >100 | >100 |  |  |  |  |  |  |  |  |  | 
CO[C@@H]1[C@@H](O)[C@@H](OC(=O)NC(C)(C)C)[C@H](Oc2ccc3c(O)c(NC(=O)c4ccc(O)c(CC=C(C)C)c4)c(=O)oc3c2C)OC1(C)C [Compound 106] | >200 | >100 | >50 | >100 | >200 | >100 | >100 |  |  |  |  |  |  |  |  |  | 
CO[C@@H]1[C@@H](O)[C@@H](OC(=O)NC2CCCC2)[C@H](Oc2ccc3c(O)c(NC(=O)c4ccc(O)c(CC=C(C)C)c4)c(=O)oc3c2C)OC1(C)C [Compound 107] | >200 | 73 (≈ 49.7 µg/mL) | 9 (≈ 6.13 µg/mL) | >100 | >200 | 73 (≈ 49.7 µg/mL) | >100 |  |  |  |  |  |  |  |  |  | 
CO[C@@H]1[C@@H](OC(=O)NC2CCCC2)[C@@H](O)[C@H](Oc2ccc3c(O)c(NC(=O)c4ccc(O)c(CC=C(C)C)c4)c(=O)oc3c2C)OC1(C)C [Compound 108] | >200 | >100 | >50 | >100 | >200 | >100 | >100 |  |  |  |  |  |  |  |  |  | 
CO[C@@H]1[C@@H](OC(N)=O)[C@@H](O)[C@H](Oc2ccc3c(O)c(NC(=O)c4ccc(N=[N+]=[N-])cc4)c(=O)oc3c2C)OC1(C)C [Compound 224] |  |  |  |  |  |  |  |  | 88 (≈ 50.1 µg/mL) |  | > 100 |  |  | > 100 | > 50 | > 200 | > 100
CO[C@@H]1[C@@H](OC(N)=O)[C@@H](O)[C@H](Oc2ccc3c(O)c(NC(=O)c4ccc(I)cc4)c(=O)oc3c2C)OC1(C)C [Compound 225] |  |  |  |  |  |  |  |  | 38 (≈ 24.9 µg/mL) |  | > 100 |  |  | > 100 | > 50 | > 200 | 38 (≈ 24.9 µg/mL)
